Measurements taken from PubChem BioAssay AID2060490 (Molecular Pharmacology Branch, DTP, NCI, 2025).

Test system: 885512-296-R-J2-PDC complex spheroid viability
Test: Anticancer human tumor 885512-296-R-J2-PDC patient-derived breast carcinoma cell line growth inhibition [GQUAD]
Conditions: for IC50: curve of first compound; for viability, T/C: stronger effect = lower value; active = viability on the fitted dose curve at most 10% of control; inactive = the rest
Outline: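 Viability of tumor cells grown as complex spheroids with endothelial and stromal cells, exposed to drug combinations. Top concentration at or near clinical Cmax (else 10 microM), diluted in half-log increments.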

[1] = second compound 0.0316 µM, first compound 0.0316 µM
[2] = second compound 0.0316 µM, first compound 0.316 µM
[3] = second compound 0.1 µM, first compound 0.0316 µM
[4] = second compound 0.1 µM, first compound 0.316 µM
[5] = second compound 0.316 µM, first compound 0.0316 µM
[6] = second compound 0.316 µM, first compound 0.316 µM
[7] = second compound 1 µM, first compound 0.0316 µM
[8] = second compound 1 µM, first compound 0.316 µM
[9] = second compound 3.16 µM, first compound 0.0316 µM
[10] = second compound 3.16 µM, first compound 0.316 µM
[11] = second compound 10 µM, first compound 0.0316 µM
[12] = second compound 10 µM, first compound 0.316 µM
[13] = second compound 0.0316 µM, first compound 0.1 µM
[14] = second compound 0.0316 µM, first compound 1 µM
[15] = second compound 0.0316 µM, first compound 3.16 µM
[16] = second compound 0.0316 µM, first compound 10 µM
[17] = second compound 0.1 µM, first compound 0.1 µM
[18] = second compound 0.1 µM, first compound 1 µM
[19] = second compound 0.1 µM, first compound 3.16 µM
[20] = second compound 0.1 µM, first compound 10 µM
[21] = second compound 0.316 µM, first compound 0.1 µM
[22] = second compound 0.316 µM, first compound 1 µM
[23] = second compound 0.316 µM, first compound 3.16 µM
[24] = second compound 0.316 µM, first compound 10 µM
[25] = second compound 1 µM, first compound 0.1 µM
[26] = second compound 1 µM, first compound 1 µM
[27] = second compound 1 µM, first compound 3.16 µM
[28] = second compound 1 µM, first compound 10 µM
[29] = second compound 3.16 µM, first compound 0.1 µM
[30] = second compound 3.16 µM, first compound 1 µM
[31] = second compound 3.16 µM, first compound 3.16 µM
[32] = second compound 3.16 µM, first compound 10 µM
[33] = second compound 10 µM, first compound 0.1 µM
[34] = second compound 10 µM, first compound 1 µM
[35] = second compound 10 µM, first compound 3.16 µM
[36] = second compound 10 µM, first compound 10 µM
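Note: spheroids exposed to the compounds for one week.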
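Throughout, for viability, T/C: percent of tumor spheroid viability relative to DMSO vehicle control wells.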

CC[C@@]1(O)C(=O)OCc2c1cc1n(c2=O)Cc2cc3c(CN(C)C)c(O)ccc3nc2-1 + Cc1cnc(CNC(=O)c2c(=O)c3ccc(N4CCCN(C)CC4)nc3n3c2sc2ccccc23)cn1
13.9 nM: IC50 (second compound 0.0316 µM)
active: viability, T/C [4] 9.1% | viability, T/C [10] 8.5% | viability, T/C (second compound 10 µM, first compound 0.000999 µM) 0.07% | viability, T/C (second compound 10 µM, first compound 0.00316 µM) 0.13% | viability, T/C (second compound 10 µM, first compound 0.00999 µM) 0.24% | viability, T/C [11] 0.16% | viability, T/C (second compound 10 µM, first compound 0.0999 µM) 0.17% | viability, T/C [12] 0.14%
< 0.999 nM: IC50 (second compound 0.316 µM) | IC50 (second compound 1 µM) | IC50 (second compound 3.16 µM) | IC50 (second compound 10 µM)
3.86 nM: IC50 (second compound 0.1 µM)
inactive: viability, T/C (second compound 0.0316 µM, first compound 0.000999 µM) 82.1% | viability, T/C (second compound 0.0316 µM, first compound 0.00316 µM) 77.9% | viability, T/C (second compound 0.0316 µM, first compound 0.00999 µM) 62.1% | viability, T/C [1] 20.5% | viability, T/C (second compound 0.0316 µM, first compound 0.0999 µM) 15.2% | viability, T/C [2] 6.65% | viability, T/C (second compound 0.1 µM, first compound 0.000999 µM) 63.8% | viability, T/C (second compound 0.1 µM, first compound 0.00316 µM) 52.1% | viability, T/C (second compound 0.1 µM, first compound 0.00999 µM) 37.4% | viability, T/C [3] 20.1% | viability, T/C (second compound 0.1 µM, first compound 0.0999 µM) 13.4% | viability, T/C (second compound 0.316 µM, first compound 0.000999 µM) 30% | viability, T/C (second compound 0.316 µM, first compound 0.00316 µM) 19.1% | viability, T/C (second compound 0.316 µM, first compound 0.00999 µM) 21.3% | viability, T/C [5] 16.1% | viability, T/C (second compound 0.316 µM, first compound 0.0999 µM) 16.9% | viability, T/C [6] 12% | viability, T/C (second compound 1 µM, first compound 0.000999 µM) 21.8% | viability, T/C (second compound 1 µM, first compound 0.00316 µM) 22.8% | viability, T/C (second compound 1 µM, first compound 0.00999 µM) 18.4% | viability, T/C [7] 20.1% | viability, T/C (second compound 1 µM, first compound 0.0999 µM) 15.2% | viability, T/C [8] 12% | viability, T/C (second compound 3.16 µM, first compound 0.000999 µM) 29.7% | viability, T/C (second compound 3.16 µM, first compound 0.00316 µM) 24% | viability, T/C (second compound 3.16 µM, first compound 0.00999 µM) 24.8% | viability, T/C [9] 20.2% | viability, T/C (second compound 3.16 µM, first compound 0.0999 µM) 12.8%

C=CC(=O)N1CCN(c2nc(=O)n(-c3c(C)ccnc3C(C)C)c3nc(-c4c(O)cccc4F)c(F)cc23)C(C)C1 (stereo unspecified) + CN(C)c1ccc(Nc2c3ccc(NC(=O)CCN4CCCC4)cc3nc3cc(NC(=O)CCN4CCCC4)ccc23)cc1
> 10000 nM: IC50 (second compound 0.0316 µM) | IC50 (second compound 0.1 µM) | IC50 (second compound 0.316 µM) | IC50 (second compound 1 µM) | IC50 (second compound 3.16 µM)
< 31.6 nM: IC50 (second compound 10 µM)
inactive: viability, T/C [1] 104% | viability, T/C [13] 94.9% | viability, T/C [2] 108% | viability, T/C [14] 103% | viability, T/C [15] 102% | viability, T/C [16] 105% | viability, T/C [3] 111% | viability, T/C [17] 99.5% | viability, T/C [4] 101% | viability, T/C [18] 108% | viability, T/C [19] 114% | viability, T/C [20] 100% | viability, T/C [5] 107% | viability, T/C [21] 97.9% | viability, T/C [6] 103% | viability, T/C [22] 119% | viability, T/C [23] 99.9% | viability, T/C [24] 105% | viability, T/C [7] 101% | viability, T/C [25] 88.8% | viability, T/C [8] 101% | viability, T/C [26] 117% | viability, T/C [27] 102% | viability, T/C [28] 108% | viability, T/C [9] 106% | viability, T/C [29] 115% | viability, T/C [10] 120% | viability, T/C [30] 129% | viability, T/C [31] 103% | viability, T/C [32] 77.7% | viability, T/C [11] 27% | viability, T/C [33] 21.7% | viability, T/C [12] 21.9% | viability, T/C [34] 18.9% | viability, T/C [35] 20.6% | viability, T/C [36] 10.3%

COc1cc(C2c3cc4c(cc3C(OC3OC5COC(C)OC5C(O)C3O)C3COC(=O)C23)OCO4)cc(OC)c1O (stereo unspecified) + Cc1[nH]c2ccc(F)cc2c1-c1nc2c3cccnc3c3ncccc3c2[nH]1
< 31.6 nM: IC50 (second compound 3.16 µM) | IC50 (second compound 10 µM)
739 nM: IC50 (second compound 0.0316 µM)
inactive: viability, T/C [1] 96.3% | viability, T/C [13] 86.7% | viability, T/C [2] 77.3% | viability, T/C [14] 41% | viability, T/C [15] 13.6% | viability, T/C [3] 117% | viability, T/C [17] 91.5% | viability, T/C [4] 94.2% | viability, T/C [18] 39.9% | viability, T/C [19] 11.4% | viability, T/C [5] 91.8% | viability, T/C [21] 98.4% | viability, T/C [6] 82.1% | viability, T/C [22] 36.1% | viability, T/C [23] 16.5% | viability, T/C [24] 8.49% | viability, T/C [7] 70.5% | viability, T/C [25] 76% | viability, T/C [8] 62.3% | viability, T/C [26] 37.9% | viability, T/C [27] 13.7% | viability, T/C [9] 21.3% | viability, T/C [29] 13.6% | viability, T/C [10] 15.8%
active: viability, T/C [16] 10.1% | viability, T/C [20] 10% | viability, T/C [28] 6.78% | viability, T/C [30] 7.13% | viability, T/C [31] 4.87% | viability, T/C [32] 2.93% | viability, T/C [11] 1.61% | viability, T/C [33] 3.08% | viability, T/C [12] 1.52% | viability, T/C [34] 1.53% | viability, T/C [35] 1.51% | viability, T/C [36] 1.37%
578 nM: IC50 (second compound 1 µM)
806 nM: IC50 (second compound 0.1 µM)
715 nM: IC50 (second compound 0.316 µM)
